Laboratory results from patent US20250282776A1, “Bicyclic TLR7 Agonists and Uses Thereof” (Bristol-Myers Squibb Company, priority 2024, published 2025).

How the values were obtained:
human TLR7 (hTLR7) = target: T1, human TLR7 (hTLR7) (Homo sapiens, UniProt Q9NYK1); experiment: Human TLR7 agonist activity assay (HEK-Blue TLR7 SEAP reporter); format: cell-based; conditions: HEK-Blue TLR7 cells, 18 h incubation, Quanti-Blue, OD 620 nm, some values average of multiple measurements
T1 construct: host or cells: HEK-Blue TLR7 cells (engineered human embryonic kidney cells)
T1 sequence (Q9NYK1 27-1049): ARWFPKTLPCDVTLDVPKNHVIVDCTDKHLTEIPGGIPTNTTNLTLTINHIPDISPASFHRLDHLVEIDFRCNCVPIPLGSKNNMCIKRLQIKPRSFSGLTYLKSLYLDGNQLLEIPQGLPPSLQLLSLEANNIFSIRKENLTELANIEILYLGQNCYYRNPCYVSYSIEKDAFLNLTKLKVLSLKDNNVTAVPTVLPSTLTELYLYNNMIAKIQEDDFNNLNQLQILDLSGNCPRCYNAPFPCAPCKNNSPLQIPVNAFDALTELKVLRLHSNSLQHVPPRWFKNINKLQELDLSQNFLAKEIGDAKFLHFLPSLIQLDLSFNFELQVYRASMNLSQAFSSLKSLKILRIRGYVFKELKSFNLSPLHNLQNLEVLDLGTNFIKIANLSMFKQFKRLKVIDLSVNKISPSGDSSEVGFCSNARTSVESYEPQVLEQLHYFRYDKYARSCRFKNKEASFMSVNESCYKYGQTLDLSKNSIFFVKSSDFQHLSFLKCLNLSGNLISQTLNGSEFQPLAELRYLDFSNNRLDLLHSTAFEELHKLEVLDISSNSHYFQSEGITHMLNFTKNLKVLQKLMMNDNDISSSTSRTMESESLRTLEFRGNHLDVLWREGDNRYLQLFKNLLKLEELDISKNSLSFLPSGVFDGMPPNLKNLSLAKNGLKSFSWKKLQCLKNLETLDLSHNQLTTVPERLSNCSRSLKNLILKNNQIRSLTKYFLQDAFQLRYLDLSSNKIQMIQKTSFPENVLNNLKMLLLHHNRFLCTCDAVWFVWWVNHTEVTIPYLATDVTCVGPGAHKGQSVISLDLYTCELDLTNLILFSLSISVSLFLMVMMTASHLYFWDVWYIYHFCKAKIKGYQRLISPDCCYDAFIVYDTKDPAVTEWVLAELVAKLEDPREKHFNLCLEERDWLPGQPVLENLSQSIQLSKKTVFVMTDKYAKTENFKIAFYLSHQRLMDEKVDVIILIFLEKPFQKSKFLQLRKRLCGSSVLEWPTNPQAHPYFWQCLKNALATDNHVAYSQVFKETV
Outline: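 HEK-Blue TLR7 cells seeded 16-18 h, then exposed to compound for 18 h at 37 °C, 5% CO2. Secreted SEAP read with Quanti-Blue at OD 620 nm after 30 min. EC50 taken as concentration giving half-maximal response between baseline and maximum; some values averaged over repeats.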

human TLR8 (hTLR8) = target: T2, human TLR8 (hTLR8) (Homo sapiens, UniProt Q9NR97); experiment: Human TLR8 agonist activity assay (measured in a similar manner); format: cell-based; conditions: HEK-Blue TLR cells, SEAP reporter, measured in a similar manner to TLR7; some values average of multiple measurements
T2 construct: expressed in transfected cells
T2 sequence (Q9NR97 27-1041): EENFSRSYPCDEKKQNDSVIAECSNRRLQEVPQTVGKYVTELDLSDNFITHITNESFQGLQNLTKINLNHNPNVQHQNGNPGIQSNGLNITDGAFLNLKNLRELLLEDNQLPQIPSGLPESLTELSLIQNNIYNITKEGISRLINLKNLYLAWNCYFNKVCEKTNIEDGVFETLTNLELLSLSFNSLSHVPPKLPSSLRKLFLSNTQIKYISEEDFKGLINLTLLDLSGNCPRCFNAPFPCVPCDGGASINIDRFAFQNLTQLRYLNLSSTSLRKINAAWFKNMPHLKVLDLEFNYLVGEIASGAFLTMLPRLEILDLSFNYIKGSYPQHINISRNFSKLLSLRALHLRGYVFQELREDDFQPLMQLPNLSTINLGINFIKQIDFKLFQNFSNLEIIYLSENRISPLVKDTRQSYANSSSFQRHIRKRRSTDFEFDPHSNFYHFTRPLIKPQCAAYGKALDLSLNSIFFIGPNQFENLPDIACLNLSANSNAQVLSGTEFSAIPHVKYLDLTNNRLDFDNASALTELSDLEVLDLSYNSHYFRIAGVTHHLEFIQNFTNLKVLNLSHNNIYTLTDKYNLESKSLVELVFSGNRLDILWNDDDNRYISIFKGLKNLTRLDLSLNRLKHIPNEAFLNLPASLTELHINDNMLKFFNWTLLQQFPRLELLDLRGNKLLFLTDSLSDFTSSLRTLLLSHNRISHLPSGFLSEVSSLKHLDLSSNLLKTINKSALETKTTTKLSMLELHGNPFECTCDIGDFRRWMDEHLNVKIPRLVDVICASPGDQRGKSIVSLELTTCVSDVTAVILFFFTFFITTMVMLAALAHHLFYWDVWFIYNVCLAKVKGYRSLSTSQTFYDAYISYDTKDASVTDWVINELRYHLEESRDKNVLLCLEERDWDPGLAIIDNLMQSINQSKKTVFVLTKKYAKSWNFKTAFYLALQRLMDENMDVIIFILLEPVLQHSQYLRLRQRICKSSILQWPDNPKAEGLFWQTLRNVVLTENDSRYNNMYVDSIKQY
Outline: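 Compounds were added to HEK-Blue TLR8 reporter cells, pre-incubated 16-18 h, then treated 18 h at 37° C, 5% CO2. SEAP output was measured with Quanti-Blue (30 min) at OD 620 nm. Some values are averages of multiple measurements.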

Compound | EC50 (human TLR7 (hTLR7)) [µM] | EC50 (human TLR8 (hTLR8)) [µM]
CCCCN(CCO)c1nc(N)nc2cn(Cc3ccc(CN4CCCC4)cc3C(F)F)nc12 [Compound 97] | 1.05 | 1.05
CCCCN(CCO)c1nc(N)nc2cn(Cc3ccc(CNC4CCC4)cc3C(F)F)nc12 [Compound 98] | 1.56 | 1.15
CCCCN(CCO)c1nc(N)nc2cn(Cc3ccc(CN[C@H]4CCOC4)cc3C(F)F)nc12 [Compound 99] | 1.91 | 1.58
CCCCN(CCO)c1nc(N)nc2cn(Cc3ccc(CNC4CCOCC4)cc3C(F)F)nc12 [Compound 100] | 1.76 | 1.42
CCCCN(CCO)c1nc(N)nc2cn(Cc3ccc(CN[C@H]4C[C@H](OCC)C4)cc3OC)nc12 [Compound 101] | 1.6 | 1.57
CCCCN(CCO)c1nc(N)nc2cn(Cc3ccc(CNC4CCC4)cc3NC)nc12 [Compound 102] | 2.19 | 1.8
CCCCN(CCO)c1nc(N)nc2cn(Cc3ccc(CNC4CCCOC4)cc3OC)nc12 (centres unmarked) [Compound 104] | 1.75 | 2.16
CCCCN(CCO)c1nc(N)nc2cn(Cc3ccc(CNC4CCCOC4)cc3OC)nc12 (centres unmarked) [Compound 105] | 1.82 | 2.78
CCCCN(CCO)c1nc(N)nc2cn(Cc3cc(OC)c(C4CCN(CCOC)CC4)cc3OC)nc12 [Compound 106] | 1.14 | 2.5
CCCCN(CCO)c1nc(N)nc2cn(Cc3cc(OC)c(C4CCN(CC(C)(C)O)CC4)cc3OC)nc12 [Compound 107] | 1.28 | 3.03
CCCCN(CCO)c1nc(N)nc2cn(Cc3cc(OC)c(C4CCN(C5CCOCC5)CC4)cc3OC)nc12 [Compound 108] | 1.16 | 1.88
CCCCN(CCO)c1nc(N)nc2cn(Cc3cc(OC)c(C4CCN(C5CC6(COC6)C5)CC4)cc3OC)nc12 [Compound 109] | 1.46 | 1.99
CCCCN(CCO)c1nc(N)nc2cn(Cc3cc(OC)c(C4CCN(C(C)C)CC4)cc3OC)nc12 [Compound 110] | 0.039 | 0.702
CCCCN(CCO)c1nc(N)nc2cn(Cc3c(F)cc(CNCCO)cc3F)nc12 [Compound 113] | 0.937 | 2.96
CCCCN(CCO)c1nc(N)nc2cn(Cc3c(F)cc(CNCCOC)cc3F)nc12 [Compound 114] | 1.06 | 1.83
CCCCN(CCO)c1nc(N)nc2cn(Cc3c(F)cc(CNC4CCOCC4)cc3F)nc12 [Compound 115] | 0.108 | 1.5
CCCCN(CCO)c1nc(N)nc2cn(Cc3c(F)cc(CN[C@@H]4CCOC4)cc3F)nc12 [Compound 116] | 0.031 | 1.02
CCCCN(CCO)c1nc(N)nc2cn(Cc3c(F)cc(CN[C@H]4C[C@H](O)C4)cc3F)nc12 [Compound 117] | 1.19 | 1.97
CCCCN(CCO)c1nc(N)nc2cn(Cc3c(F)cc(CN[C@H]4C[C@@H](OC)C4)cc3F)nc12 [Compound 118] | 1.58 | 2.5

Compound | EC50 (human TLR7 (hTLR7)) [µM] | EC50 (human TLR8 (hTLR8)) [µM]
CCCCN(CCO)c1nc(N)nc2cn(Cc3c(F)cc(CN[C@H]4C[C@H](OC)C4)cc3F)nc12 [Compound 119] | 0.136 | 1.96
CCCCN(CCO)c1nc(N)nc2cn(Cc3ccc(CNC4CCOC(C)C4)cc3OC)nc12 (centres unmarked) [Compound 125] | 2.25 | 2.03
CCCCNCc1ccc(Cn2cc3nc(N)nc(N(CCO)CCCC)c3n2)c(C(F)F)c1 [Compound 127] | 1.8 | 2.42
CCCCN(CCO)c1nc(N)nc2cn(Cc3ccc(CNC(C)(C)C)cc3C(F)F)nc12 [Compound 128] | 1.19 | 0.628
CCCCN(CCO)c1nc(N)nc2cn(Cc3ccc(CNCC4CCC4)cc3C(F)F)nc12 [Compound 130] | 1.9 | 1.88
CCCCN(CCO)c1nc(N)nc2cn(Cc3ccc(CN[C@H]4CC[C@H](CO)CC4)cc3C(F)F)nc12 [Compound 131] | 1.28 | 3.33
CCCCN(CCO)c1nc(N)nc2cn(Cc3c(F)cc(N4CCC(N[C@@H]5CCCOC5)CC4)cc3F)nc12 [Compound 132] | 0.389 | 1.86
CCCCN(CCO)c1nc(N)nc2cn(Cc3c(F)cc(N4CCC(NC5CC6(COC6)C5)CC4)cc3F)nc12 [Compound 133] | 0.513 | 2.1
CCCCN(CCO)c1nc(N)nc2cn(Cc3cccc4c3OCCN4C(=O)CNC3CCC3)nc12 [Compound 134] | 2.24 | 1.86
CCCCN(CCO)c1nc(N)nc2cn(Cc3ccc(CN[C@@H]4CCOC4)c4c3OCCC4)nc12 [Compound 135] | 1.14 | 0.491
CCCCN(CCO)c1nc(N)nc2cn(Cc3ccc(CN[C@H]4CCOC4)c4c3OCCC4)nc12 [Compound 136, (S)-2-((5-Amino-2-((5-(((tetrahydrofuran-3-yl)amino)methyl)chroman-8-yl)methyl)-2H-pyrazolo[4,3-d]pyrimidin-7-yl)(butyl)amino) ethan-1-ol] | 0.861 | 0.36
CCCCN(CCO)c1nc(N)nc2cn(Cc3ccc(CNC4CCOCC4)c4c3OCCC4)nc12 [Compound 137] | 1.05 | 0.4
CCCCN(CCO)c1nc(N)nc2cn(Cc3ccc(CN[C@H]4C[C@H](OC)C4)c4c3OCCC4)nc12 [Compound 138] | 1.41 | 0.608
CCCCN(CCO)c1nc(N)nc2cn(Cc3ccc(CN[C@H]4CCOC[C@H]4C)cc3OC)nc12 [Compound 139] | 1.22 | 0.542
CCCCN(CCO)c1nc(N)nc2cn(Cc3ccc(CNC4CCC4)c4oc(C)nc34)nc12 [Compound 140, 2-((5-Amino-2-((7-((cyclobutylamino)methyl)-2-methylbenzo[d]oxazol-4-yl)methyl)-2H-pyrazolo-[4,3-d]pyrimidin-7-yl) (butyl)amino) ethan-1-ol] | 0.993 | 0.674
CCCCN(CCO)c1nc(N)nc2cn(Cc3ccc(CN[C@H]4C[C@H](OC)C4)c4oc(C)nc34)nc12 [Compound 141, 2-((5-amino-2-((7-((((1r,3r)-3-methoxycyclobutyl)amino)methyl)-2-methylbenzo[d]oxazol-4-yl)methyl)-2H-pyrazolo[4,3-d]pyrimidin-7-yl)(butyl)amino)ethan-1-ol] | 0.439 | 0.421
CCCCN(CCO)c1nc(N)nc2cn(Cc3ccc(CN[C@@H]4CCOC4)c4oc(C)nc34)nc12 [Compound 142] | 1.63 | 0.915
CCCCN(CCO)c1nc(N)nc2cn(Cc3c(OC)cc(CNCCOC)cc3OC)nc12 [Compound 143] | 1.7 | 1.87
